For 15 molecules, GI50 and TGI results are on record in PubChem BioAssay (NCI).

Holding throughout (assay): DTP human tumour cell line panel, 48 h
For experiment [1], the system named is HOP-92 NSCLC.
The subject of experiment [2] is MDA-MB-231 breast.
Experiment [3] deals with NCI-H226 lung.
Experiment [4] concerns BT-549 breast.
In experiment [5] the test system is SF-539 CNS.
Experiment [6] deals with TK-10 renal.
Experiment [7] deals with SR leukemia.
Experiment [8] deals with MDA-N.
Experiment [9] has as its system 786-0 renal.
The test system of experiment [10] is HOP-18 NSCLC.
Experiment [11] relates to M19-MEL melanoma.
The subject of experiment [12] is SNB-78 CNS.

Each structure is given as a SMILES string.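 Grown in 96-well plates, cells were treated for 48 hours with each compound at five concentrations. Insufficient inhibition: endpoint recorded as highest concentration tested. GI50 is the concentration that inhibits growth by half. TGI: concentration producing complete growth inhibition.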

Consider `O=C1CC(N2C(=O)/C(=C/C(Cl)=C\c3ccc([N+](=O)[O-])cc3)SC2=S)C(=O)N1c1ccc(Cl)cc1` (centres undefined), for which the GI50 in experiment [1] is 2.58 µM; in experiment [2], 3.75 µM; in experiment [3] it was 1.92 µM; in [4], 1.75 µM; in [5] it was 1.69 µM; in experiment [6], 2.79 µM. In [7], the GI50 was 0.544 µM. For the same molecule, the TGI in experiment [1] was 6.79 µM; in experiment [2] it was 47.8 µM; in experiment [3], 4.65 µM; in experiment [4], 3.74 µM; in experiment [5] it was 4.14 µM; in experiment [6], 8.63 µM. This molecule registered a TGI in [7] of 14.2 µM.

`CCn1cc(C(=O)O)c(=O)c2cc(F)c(N3CCN(Cn4c(O)c(N=NC(=O)c5ccncc5)c5cc(Cl)ccc54)CC3)cc21`: the TGI in [1] is above 100 µM; in experiment [2], above 100 µM; in experiment [3], above 100 µM; in [8], above 100 µM; in [4], above 100 µM; in experiment [5], 63.1 µM. Besides, the TGI was 71.3 µM in [6], 31 µM in experiment [7] and above 100 µM in experiment [9].

With `OC(c1ccc(-c2ccccc2)cc1)(c1ccc(-c2ccccc2)cc1)c1ccc(-c2ccccc2)cc1`, the concentration for total growth inhibition (TGI) in experiment [2], in [8], in [4], in experiment [6], in experiment [7] and in experiment [9] was above 100 µM throughout.

On to `CCCCC1Cc2cc(OC)ccc2-c2nc3cc(OC)ccc3n21` (centres undefined) (tested in a mixture with another compound), for which the TGI in experiment [1] turned out to be 17.1 µM; in experiment [2], 25.7 µM; in experiment [3], 28.1 µM; in experiment [8] it was 27 µM; in [4], 33.3 µM; in experiment [5] it was 29.7 µM. Besides, the TGI was 35.5 µM in experiment [6], 32.1 µM in experiment [7] and 27.8 µM in experiment [9].

As to `N=C(N)C(N=Nc1ccccc1)C(=N)N` (centres undefined), the TGI in [1] was 83.9 µM; in [2] it was 97.8 µM; in experiment [3] it was 73.8 µM; in experiment [8], 61.2 µM; in [4] it was above 100 µM; in experiment [5], 38.5 µM. The TGI in experiment [6] and in experiment [9] was above 100 µM each time.

Regarding `O=C(O)C(Cc1ccccc1)N1C(=O)c2ccccc2C1=O` (centres undefined), the TGI in experiment [1], in [2], in [3], in [8], in experiment [4] and in experiment [5] was above 100 µM throughout. Besides, the TGI in experiment [6] and in experiment [9] was above 100 µM throughout.

Regarding `Cc1cc(C)n(C(=O)C(C)Sc2nnc(SC(C)C(=O)n3nc(C)cc3C)s2)n1` (centres undefined), the TGI in experiment [1], in [2], in experiment [3], in experiment [8], in experiment [4] and in [6] was above 100 µM throughout. In addition, the TGI in experiment [7] and in experiment [9] was above 100 µM in each case.

`O=C1CS(=O)(=O)C(c2cccc(Oc3ccccc3)c2)N1c1cccc(Cl)c1Cl` (centres undefined): the TGI in [1] is 41.6 µM; in [2] it was 70.6 µM; in experiment [3], above 100 µM; in experiment [8], 49.7 µM; in experiment [5] it was 46.6 µM; in experiment [6] it was 67.3 µM. In addition, the TGI in [7] was found to be 52 µM; in experiment [9], 32.7 µM.

As for `O=C1CCC(NC(=O)Cc2ccc(O)cc2)C(=O)N1` (centres undefined), the TGI in [10], in experiment [1], in experiment [3], in experiment [11], in experiment [12] and in experiment [6] was above 2500 µM in each case.

Regarding `C=C1C(C2(C)C=CC(=O)OC3(C)COC(=O)CC32)C(OC=O)C(OC(=O)C(O)C(C)CC)C2(C)C(c3ccoc3)CC(OC(C)=O)C12O` (centres undefined), the TGI in experiment [1], in experiment [2], in experiment [3], in experiment [8], in experiment [4] and in [5] was above 100 µM throughout. Also, the TGI in [6], in [7] and in experiment [9] was above 100 µM in each case.

Regarding `O=C1c2scnc2-c2nccc3c2c1nc1ccccc13`, the TGI in experiment [1] was 4.85 µM; in [4] it was 2.94 µM; in experiment [5] it was 1.54 µM; in experiment [7], above 100 µM.

With `CO[C@@]12C[C@@H](CNC(=O)c3cc(Br)c[nH]3)O[C@@H]1NC(=O)N2`, the TGI in experiment [2], in experiment [3], in [4], in experiment [5], in experiment [6] and in experiment [9] was above 100 µM in each case.

In the case of `COC1CCC(OS(C)(=O)=O)CO1` (centres undefined), the TGI in [1], in [11], in experiment [5], in experiment [12] and in [7] was above 100 µM in each case.

Take `OC1C=C2C3CN(Cc4cc5c(cc43)OCO5)[C@H]2C[C@@H]1O` (some centres undefined): the TGI was 46.9 µM in [1]; 68.5 µM in experiment [2]; above 100 µM in experiment [3]; 37.3 µM in [8]; 14.7 µM in experiment [4]; above 100 µM in [5]. Also, the values for the TGI in [6], in experiment [7] and in experiment [9] were 39.3 µM, above 100 µM and 36.3 µM, respectively.

For the molecule `O=c1c2c([nH]c3nccn13)CCCC2`, the TGI in experiment [2], in experiment [3], in experiment [5], in experiment [6] and in [7] was above 10 µM each time.
